Experimental data: PMC12631437, “Evaluation of the Activity of 4‑Quinolones against Multi-Life Stages of Plasmodium spp” (ACS Omega, 2025)
Several values for one entry are separate records, joined by “and”; a condition that tells them apart may be missing. Equal values may be shown once. Read-outs that look alike come from different tables or passages of the source.

Legend:
P. falciparum HB3 strain = experiment: SYBR Green growth assay, asexual blood stages, HB3 strain; type: cell-based, Plasmodium falciparum; conditions: for IC50: Plasmodium falciparum
Description: Parasite strains SB1-A6, 7G8, V1/S, and HB3 were acquired from BEI-MR4, while the ATQ R1 strain, carrying a V259L gene mutation, was generated in-house. […] Parasitemia was monitored using Giemsa-stained blood smears.
(§1) Bioassays were conducted with synchronized ring-stage parasites using sorbitol synchronization. Antimalarial compounds were evaluated in 96-well plates, and parasite growth was assessed using a SYBR Green-based fluorescence assay The assays were conducted when the parasite quantity reached at least 70% of the ring stage. Compounds were initially added at specific concentrations in the first wells, followed by serial dilution (1:2) ranging from 20 μM to 0.009 μM. Subsequently, a solution containing parasites in RPMI medium at a hematocrit of 2% was added to each well, and the parasites were then incubated for 72 h.
The IC50 values were determined using concentration–response curves generated in GraphPad 8 software. Additionally, the resistance index was calculated by comparing IC50 values obtained for the sensitive 3D7 strain with those of the resistant strains.

[1] = system: P. falciparum V1/S strain; experiment: microbe, parasite or virus in culture; type: cell-based, Plasmodium falciparum; conditions: for IC50: Plasmodium falciparum
Description: (§2) Healthy blood samples for parasite culture were obtained from voluntary donors (approved under protocol #28176720.9.0000.0011), processed to remove white blood cells, and stored at 2 °C–8 °C for up to 15 days. Parasite strains SB1-A6, 7G8, V1/S, and HB3 were acquired from BEI-MR4, while the ATQ R1 strain, carrying a V259L gene mutation, was generated in-house. Infected erythrocytes were cultured in RPMI 1640 medium supplemented with Hepes, sodium bicarbonate, glucose, Albumax, and gentamicin, […], and incubated in a 5% CO2, 5% O2, and 90% N2 gas mixture at 37 °C with daily medium changes. Parasitemia was monitored using Giemsa-stained blood smears.
as §1
(§3) To assess parasite growth, the culture medium was replaced with a lysis solution (Trisbase: 49.31%, EDTA: 30.00%, Saponin: 0.16%, Triton: 0.02%) containing the fluorescent dye SYBR Green (Sigma). After a 30 min incubation, fluorescence readings were taken to determine the 50% inhibitory concentration (IC50) of parasite growth. The IC50 values were determined using concentration–response curves generated in GraphPad 8 software. Additionally, the resistance index was calculated by comparing IC50 values obtained for the sensitive 3D7 strain with those of the resistant strains.

P. falciparum 7G8 strain = experiment: SYBR Green growth assay, asexual blood stages, 7G8 strain; type: cell-based, Plasmodium falciparum; conditions: for IC50: Plasmodium falciparum
Description: as §2, §1, §3

[2] = system: P. falciparum SB1-A6 strain; experiment: SYBR Green growth assay, asexual blood stages, SB1-A6 strain; type: cell-based, Plasmodium falciparum
Description: as §2, §1, §3

[3] = system: P. falciparum ATQ_R1 strain; experiment: SYBR Green growth assay, asexual blood stages, ATQ_R1 strain; type: cell-based, Plasmodium falciparum; conditions: for IC50: Plasmodium falciparum
Description: as §2, §1, §3

[4] = system: P. falciparum multidrug-resistant strains; experiment: SYBR Green growth assay, summary over panel of resistant strains; type: cell-based; conditions: Plasmodium falciparum
Description: as §2
Bioassays were conducted with synchronized ring-stage parasites using sorbitol synchronization. Antimalarial compounds were evaluated in 96-well plates, and parasite growth was assessed using a SYBR Green-based fluorescence assay The assays were conducted when the parasite quantity reached at least 70% of the ring stage. […]
To assess parasite growth, the culture medium was replaced with a lysis solution (Trisbase: 49.31%, EDTA: 30.00%, Saponin: 0.16%, Triton: 0.02%) containing the fluorescent dye SYBR Green (Sigma). […] The IC50 values were determined using concentration–response curves generated in GraphPad 8 software. […]

[5] = system: P. berghei exflagellation centers; experiment: Ex vivo exflagellation assay, blood of P. berghei infected mice; type: cell-based, Plasmodium berghei; conditions: 15 min incubation
Description: For the ex vivo assays, a female CD1 mouse between 4 and 5 weeks of age (n = 3) was infected with P. berghei. After 4 days, when the presence of parasites (sexual phases) in the blood was observed by Giemsa-stained blood smear microscopy, the total blood from the mouse was collected into a preheated tube at 37 °C containing RPMI medium supplemented with 20% Fetal Bovine Serum (FBS) and 200 units/mL of heparin as an anticoagulant. The tube was maintained at 37 °C and centrifuged at 1500 rpm for 5 min. The supernatant was discarded, and the blood was resuspended in 20 mL of RPMI medium supplemented with 20% FBS.
One milliliter of resuspended blood was added to each well of a 6-well plate containing 5 μM methylene blue (positive control), test compound 1 at 10 μM and 1 μM, and DMSO (negative control). After 15 min, the wells were homogenized, and 10 μL of the content was collected into an Eppendorf tube and incubated at room temperature for another 15 min. The sample was then transferred to a Neubauer chamber, and exflagellation centers were counted using an optical microscope at 40× magnification.

[6] = Mitochondrial toxicity, HepG2 cells cultured in glucose or galactose (resazurin); type: cell-based; conditions: human, 3.125–50 μM, read-out: cell viability
Description: To evaluate mitochondrial toxicity, HepG2 cells were cultured in RPMI-1640 medium under two metabolic conditions: one group was maintained in standard RPMI supplemented with 2 g/L glucose (glucose condition), while the second group was gradually adapted to rely on galactose as the primary energy source. For this adaptation, glucose levels were reduced by 20% every 2 days until reaching a final concentration of 20% of the original glucose amount. On the day of the assay, the […] cells were cultured in glucose-free RPMI medium supplemented with 10 mM galactose. When cells reached 80% confluence, they were detached using 2 mL of trypsin-EDTA solution (0.2 g of EDTA) for 5 min at 37 °C, then resuspended in fresh medium and centrifuged at 100 × g for 1 min. After centrifugation, cells were counted using a Neubauer chamber and seeded at […] per well in 96-well plates containing 180 μL of culture medium. Plates were incubated at 37 °C with 5% CO2 for 12–16 h to allow for cell adhesion. […] After treatment, 40 μL of a 0.15 mg/mL resazurin solution (RSZ) was added to each well and incubated for an additional 5 h. RSZ is a nontoxic, cell-permeable blue dye that is reduced by metabolically active cells to highly fluorescent pink resorufin. Fluorescence was measured using a fluorimeter with excitation/emission at 560/590 nm. Cell viability was calculated relative to untreated controls (set at 100%), determined using GraphPad Prism 8.

**Q.** With `CCCCCCCCCCCc1cc(=O)c2ccccc2[nH]1` [compound 1, 2-Undecilquinolin-4(1H)-one] as the compound, how does the IC50 (P. falciparum HB3 strain; HB3, strain assigned by order of panels, read-out: IC50 (Figure S1)) read?
**A.** The IC50 was 0.26 µM.

**Q.** What about the IC50 (P. falciparum HB3 strain; HB3 strain, 72 h, read-out: IC50) of the same compound?
**A.** The IC50 was 0.43 ± 0.05 µM.

**Q.** And the “RI (resistance index)” value (P. falciparum HB3 strain; ratio of IC50 HB3 to 3D7)?
**A.** Its value is 2.1.

**Q.** What about the IC50 ([1]; 72 h) of the same compound?
**A.** Its IC50 is 0.8 ± 0.1 µM.

**Q.** What about the IC50 ([1]; read-out: IC50 (Figure S1)) of the same compound?
**A.** Its IC50 is 0.7 µM.

**Q.** And the “RI (resistance index)” value ([1]; ratio of IC50 V1S to 3D7)?
**A.** The value was 4.0.

**Q.** What about the IC50 (P. falciparum 7G8 strain; 7G8, strain assigned by order of panels, read-out: IC50 (Figure S1)) of the same compound?
**A.** The IC50 was 0.2 µM.

**Q.** And the IC50 (P. falciparum 7G8 strain; 7G8 strain, 72 h, read-out: IC50)?
**A.** Its IC50 is 0.27 ± 0.01 µM.

**Q.** And the “RI (resistance index)” value (P. falciparum 7G8 strain; ratio of IC50 7G8 to 3D7)?
**A.** Its value is 1.3.

**Q.** And the IC50 ([2]; Plasmodium falciparum, 72 h)?
**A.** Its IC50 is 7 ± 1 µM.

**Q.** What about the “RI (resistance index)” value ([2]; ratio of IC50 SB1-A6 to 3D7) of the same compound?
**A.** The value was 35.

**Q.** What about the IC50 ([3]; 72 h) of the same compound?
**A.** The IC50 was 0.6 ± 0.1 µM.

**Q.** What about the IC50 ([3]; read-out: IC50 (Figure S1)) of the same compound?
**A.** Its IC50 is 0.8 µM.

**Q.** And the “RI (resistance index)” value ([3]; ratio of IC50 ATQ_R1 to 3D7)?
**A.** The value was 3.0.

**Q.** What about the IC50 ([4]; HB3, read-out: IC50 values) of the same compound?
**A.** Its IC50 is 0.06 to 0.8 µM.

**Q.** What about the IC50 ([4]; TM90C6B, read-out: submicromolar activity) of the same compound?
**A.** Its IC50 is 0.29 to 0.79 µM.

**Q.** What about the “reduction of exflagellation centers (ex vivo)” value ([5]; 1 μM) of the same compound?
**A.** The value was 23,8% and 24%.

**Q.** And the “reduction of exflagellation centers (ex vivo)” value ([5]; 10 μM)?
**A.** The value was 63,9% and 64%.

**Q.** What about the viability at 24 h ([6]; HepG2 cells adapted to galactose, HepG2 in galactose) of the same compound?
**A.** Its viability at 24 h is < 0.5%.

**Q.** And the viability at 24 h ([6]; HepG2 cells cultured in glucose, HepG2 in glucose)?
**A.** The viability at 24 h was > 50%.
